Biological target: T1, HPK1 (Homo sapiens, UniProt Q92918)
T1 construct: A HiBiT tag was introduced by CRISPR on the N terminus of HPK1 in Jurkat cells; host or cells: Jurkat cells (ATCC TIB-152), monoclonal line with CRISPR knock-in of HiBiT at the endogenous HPK1 locus
Experiment: HPK1 Cellular HiBit Degradation Assay
Format: cell-based
Settings: HiBiT HPK1 Jurkat cells, 24 hrs; for DC50: concentration at which 50% of HPK1 was remaining, read-out: DC50 Category; for Dmax: Jurkat, maximum degradation vs DMSO vehicle control, read-out: Dmax Category
Outline: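 HiBiT-HPK1 Jurkat (CRISPR, N-term tag), 3×10^4 cells/well, RPMI 1640 + 10% FBS; CTMs 10 uM–0.1 nM, 11 pts; 24 hrs, 37° C/5% CO2; lytic HiBiT luminescence; % remaining vs DMSO, parental background subtracted; 4-parameter fit → DC50, Dmax.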

T1 sequence (Q92918 whole entry): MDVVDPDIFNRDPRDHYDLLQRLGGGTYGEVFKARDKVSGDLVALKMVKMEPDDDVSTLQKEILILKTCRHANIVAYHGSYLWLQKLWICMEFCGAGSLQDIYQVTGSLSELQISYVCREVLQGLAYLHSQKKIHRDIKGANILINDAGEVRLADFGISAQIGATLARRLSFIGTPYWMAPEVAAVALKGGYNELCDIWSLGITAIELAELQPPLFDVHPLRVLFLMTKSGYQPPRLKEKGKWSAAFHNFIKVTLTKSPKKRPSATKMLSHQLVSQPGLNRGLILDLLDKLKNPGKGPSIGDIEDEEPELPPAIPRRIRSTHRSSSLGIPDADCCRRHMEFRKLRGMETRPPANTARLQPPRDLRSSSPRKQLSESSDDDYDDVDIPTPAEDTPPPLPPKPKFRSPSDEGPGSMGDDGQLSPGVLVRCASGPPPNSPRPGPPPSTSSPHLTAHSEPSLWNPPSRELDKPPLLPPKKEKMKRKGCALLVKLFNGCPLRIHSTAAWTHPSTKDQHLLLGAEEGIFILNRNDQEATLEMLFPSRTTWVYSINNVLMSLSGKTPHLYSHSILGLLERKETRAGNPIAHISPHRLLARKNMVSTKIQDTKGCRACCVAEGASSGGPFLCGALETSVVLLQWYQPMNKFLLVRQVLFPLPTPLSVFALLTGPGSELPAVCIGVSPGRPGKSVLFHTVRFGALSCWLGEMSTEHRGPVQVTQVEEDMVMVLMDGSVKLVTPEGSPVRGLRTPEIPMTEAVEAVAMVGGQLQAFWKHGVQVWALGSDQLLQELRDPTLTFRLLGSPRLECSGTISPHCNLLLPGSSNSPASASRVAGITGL

DC50 | Dmax | Structure (SMILES)
< 100 nM | 70 to 85% | CC(C)n1cnc2cc(-c3ccc4c(c3)N([C@H]3C[C@@H](N5CCCCC5)C3)C(=O)C43CCN(C(=O)C4CCN(C(=O)C5CCN(c6ccc(C7CCC(=O)NC7=O)nn6)CC5)CC4)CC3)nc(NC3CC3)c21 (mixture of isomers) [Example 236, (3RS)-3-(6-{4-[4-({6-[4-(cyclopropylamino)-3-(propan-2-yl)-3H-imidazo[4,5-c]pyridin-6-yl]-2-oxo-1-[(1S,3S)-3-(piperidin-1-yl)cyclobutyl]-1,2-dihydrospiro[indole-3,4′-piperidin]-1′-yl}carbonyl)piperidine-1-carbonyl]piperidin-1-yl}pyridazin-3-yl)piperidine-2,6-dione]
< 100 nM | 70 to 85% | CC(C)n1cnc2cc(-c3ccc4c(c3)N([C@H]3C[C@@H](N5CCCCC5)C3)C(=O)C43CCN(C(=O)C4CCN(C(=O)C5CCN(c6ccc(C7CCC(=O)NC7=O)c(F)c6)CC5)CC4)CC3)nc(NC3CC3)c21 (mixture of isomers) [Example 237, (3RS)-3-(4-{4-[4-({6-[4-(cyclopropylamino)-3-(propan-2-yl)-3H-imidazo[4,5-c]pyridin-6-yl]-2-oxo-1-[(1S,3S)-3-(piperidin-1-yl)cyclobutyl]-1,2-dihydrospiro[indole-3,4′-piperidin]-1′-yl}carbonyl)piperidine-1-carbonyl]piperidin-1-yl}-2-fluorophenyl)piperidine-2,6-dione]
< 100 nM | > 85% | CC(C)n1cnc2cc(-c3ccc4c(c3)N([C@H]3C[C@@H](N5CCCCC5)C3)C(=O)C43CCN(C(=O)C4CN(C(=O)C5CCN(c6ccc(C7CCC(=O)NC7=O)cn6)CC5)C4)CC3)nc(Nc3ccccc3F)c21 (mixture of isomers) [Example 242, (3RS)-3-[6-(4-{3-[(6-{4-[(2-fluorophenyl)amino]-3-(propan-2-yl)-3H-imidazo[4,5-c]pyridin-6-yl}-2-oxo-1-[(1S,3S)-3-(piperidin-1-yl)cyclobutyl]-1,2-dihydrospiro[indole-3,4′-piperidin]-1′-yl)carbonyl]azetidine-1-carbonyl}piperidin-1-yl)pyridin-3-yl]piperidine-2,6-dione]
< 100 nM | 70 to 85% | CC(C)n1cnc2cc(-c3ccc4c(c3)N([C@H]3C[C@@H](N5CCCCC5)C3)C(=O)C43CCN(C(=O)CN4CCN(C(=O)C5CCN(c6ccc(C7CCC(=O)NC7=O)cn6)CC5)CC4)CC3)nc(NC3CC3)c21 (mixture of isomers) [Example 243, (3RS)-3-(6-{4-[4-(2-{6-[4-(cyclopropylamino)-3-(propan-2-yl)-3H-imidazo[4,5-c]pyridin-6-yl]-2-oxo-1-[(1S,3S)-3-(piperidin-1-yl)cyclobutyl]-1,2-dihydrospiro[indole-3,4′-piperidin]-1′-yl}-2-oxoethyl)piperazine-1-carbonyl]piperidin-1-yl}pyridin-3-yl)piperidine-2,6-dione]
< 100 nM | 70 to 85% | CC(C)n1cnc2cc(-c3ccc4c(c3)N([C@H]3C[C@@H](N5CCCCC5)C3)C(=O)C43CCN(C(=O)[C@]4(C)CCN(C(=O)C5CCN(c6ccc([C@@H]7CCC(=O)NC7=O)cc6)CC5)C4)CC3)nc(NC3CC3)c21 (racemic) [Example 244, (3RS)-3-(4-{4-[(3R)-3-({6-[4-(cyclopropylamino)-3-(propan-2-yl)-3H-imidazo[4,5-c]pyridin-6-yl]-2-oxo-1-[(1S,3S)-3-(piperidin-1-yl)cyclobutyl]-1,2-dihydrospiro[indole-3,4′-piperidin]-1′-yl}carbonyl)-3-methylpyrrolidine-1-carbonyl]piperidin-1-yl}phenyl)piperidine-2,6-dione]
